Target: human plasma kallikrein (Homo sapiens (Human), UniProt P03952)
Experiment: Plasma kallikrein activity assay (chromogenic substrate S2302)
Format: biochemical
Settings: 2 nM kallikrein, 80 μM S2302, 30° C., pH 7.8; Ki by Cheng-Prusoff equation; values given as ranges; read-out: Ki
Description: Plasma Kallikrein Activity Assay.
The effect of compounds of the invention on human plasma kallikrein activity was determined using the chromogenic substrates (DiaPharma Group, Inc., West Chester, Ohio, USA). In these experiments, 2 nM kallikrein (Enzyme Research Laboratories, South Bend, Ind., USA) was incubated with 80 μM S2302 (H-D-Pro-Phe-Arg-p-nitroaniline) in the absence or presence of increasing concentrations of compounds of the invention in a final volume of 200 μL Tris-HCl buffer (200 mM NaCl; mM CaCl2; 50 mM Tris-HCl, pH 7.8).
Data were analyzed using SigmaPlot software (Systat Software, Inc., San Jose, Calif., USA) (Four Parameter Logistic Curve).

human plasma kallikrein, sequence (P03952 whole entry, looked up): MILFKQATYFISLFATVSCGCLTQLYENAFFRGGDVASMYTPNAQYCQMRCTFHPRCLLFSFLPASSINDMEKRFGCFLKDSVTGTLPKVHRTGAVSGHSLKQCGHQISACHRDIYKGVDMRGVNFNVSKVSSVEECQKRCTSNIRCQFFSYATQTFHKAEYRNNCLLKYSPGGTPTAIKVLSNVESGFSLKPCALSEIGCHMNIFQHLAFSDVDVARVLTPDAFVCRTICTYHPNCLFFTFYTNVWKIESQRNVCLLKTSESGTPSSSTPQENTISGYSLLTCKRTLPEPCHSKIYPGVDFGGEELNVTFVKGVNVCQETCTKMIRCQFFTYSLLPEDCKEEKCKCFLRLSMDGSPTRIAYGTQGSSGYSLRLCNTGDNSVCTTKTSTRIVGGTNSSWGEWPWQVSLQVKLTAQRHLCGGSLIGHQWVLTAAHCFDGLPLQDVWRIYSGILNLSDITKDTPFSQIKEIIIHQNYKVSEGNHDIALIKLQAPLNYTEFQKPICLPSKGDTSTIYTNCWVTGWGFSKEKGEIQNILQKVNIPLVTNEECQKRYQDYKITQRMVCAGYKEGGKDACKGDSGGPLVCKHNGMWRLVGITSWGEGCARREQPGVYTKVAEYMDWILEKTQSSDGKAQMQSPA
human plasma kallikrein, sequence (P03952 whole entry partner, looked up): as the sequence (P03952 whole entry, looked up) above

`NCc1cccc(-n2nc(C(F)(F)F)cc2C(=O)Nc2cc(C(N)(CCC3CC3)c3ccc(C(N)=O)cc3)ccc2F)c1` (single isomer, unassigned; (+)) [228a, (+)-N-(5-(1-amino-1-(4-carbamoylphenyl)-3-cyclopropylpropyl)-2-fluorophenyl)-1-(3-(aminomethyl)phenyl)-3-(trifluoromethyl)-1H-pyrazole-5-carboxamide] and `NCc1cccc(-n2nc(C(F)(F)F)cc2C(=O)Nc2cc(C(N)(CCC3CC3)c3ccncc3)ccc2F)c1` (single isomer, unassigned; (+)) [216d, (+)-N-(5-(1-amino-3-cyclopropyl-1-(pyridin-4-yl)propyl)-2-fluorophenyl)-1-(3-(aminomethyl)phenyl)-3-(trifluoromethyl)-1H-pyrazole-5-carboxamide] fall in the same range of Ki: 0.1 to 50 nM for the first, 0.1 to 50 nM for the second.

`NCc1cccc(-n2nc(C(F)(F)F)cc2C(=O)Nc2cccc(C(CCC3CC3)n3ccccc3=O)c2)c1` (centres unmarked) [247c, 1-(3-(aminomethyl)phenyl)-N-(3-(3-cyclopropyl-1-(2-oxopyridin-1(2H)-yl)propyl)phenyl)-3-(trifluoromethyl)-1H-pyrazole-5-carboxamide] and `NCc1cccc(-n2nc(C(F)(F)F)cc2C(=O)Nc2cccc(C(CCC3CC3)N3CCCC3)c2)c1` (centres unmarked) [98b, 1-(3-(aminomethyl)phenyl)-N-(3-(3-cyclopropyl-1-(pyrrolidin-1-yl)propyl)phenyl)-3-(trifluoromethyl)-1H-pyrazole-5-carboxamide] fall in the same range of Ki: 0.1 to 50 nM for the first, 0.1 to 50 nM for the second.

`Cc1ccccc1C(NCC1CC1)c1cccc(NC(=O)c2cc(C(F)(F)F)nn2-c2cccc(CN)c2)c1` (centres unmarked) [193f, 1-(3-(Aminomethyl)phenyl)-N-(3-(((cyclopropylmethyl)amino)(o-tolyl)methyl)phenyl)-3-(trifluoromethyl)-1H-pyrazole-5-carboxamide] and `NCc1cccc(-n2nc(C(F)(F)F)cc2C(=O)Nc2cccc(C(NCC3CC3)c3cccc(N)c3)c2)c1` (centres unmarked) [102b, 1-(3-(aminomethyl)phenyl)-N-(3-((3-aminophenyl)(cyclopropylmethylamino)methyl)phenyl)-3-(trifluoromethyl)-1H-pyrazole-5-carboxamide] fall in the same range of Ki: 0.1 to 50 nM for the first, 0.1 to 50 nM for the second.

`NCc1cccc(-n2nc(C(F)(F)F)cc2C(=O)Nc2cccc(C(OCC3CC3)c3cccc(N)c3)c2)c1` (single isomer, unassigned; (+)) [64b, (+)-1-(3-(aminomethyl)phenyl)-N-(3-((3-aminophenyl)(cyclopropyl-methoxy)methyl)phenyl)-3-(trifluoromethyl)-1H-pyrazole-5-carboxamide] and `NCc1cccc(-n2nc(C(F)(F)F)cc2C(=O)Nc2cccc(C(OCC3CC3)c3ccccc3)c2)c1` (single isomer, unassigned; (+)) [166e, (+)-1-(3-(aminomethyl)phenyl)-N-(3-((cyclopropylmethoxy)(phenyl)methyl)phenyl)-3-(trifluoromethyl)-1H-pyrazole-5-carboxamide] fall in the same range of Ki: 0.1 to 50 nM for the first, 0.1 to 50 nM for the second.

`CC(=O)NC(CCC1CC1)(c1cccnc1)c1ccc(F)c(NC(=O)c2cc(C(F)(F)F)nn2-c2cccc(CN)c2)c1` (single isomer, unassigned; (-)) [244h, (−)-N-(5-(1-acetamido-3-cyclopropyl-1-(pyridin-3-yl)propyl)-2-fluorophenyl)-1-(3-(aminomethyl)phenyl)-3-(trifluoromethyl)-1H-pyrazole-5-carboxamide] and `COc1cccc(C(NCC2CC2)c2ccc(F)c(NC(=O)c3cc(C(F)(F)F)nn3-c3cccc(CN)c3)c2)c1` (centres unmarked) [141e, 1-(3-(aminomethyl)phenyl)-N-(5-(((cyclopropylmethyl)amino)(3-methoxyphenyl)methyl)-2-fluorophenyl)-3-(trifluoromethyl)-1H-pyrazole-5-carboxamide] fall in the same range of Ki: 0.1 to 50 nM for the first, 0.1 to 50 nM for the second.

First: CCNCc1cccc(-n2nc(C(F)(F)F)cc2C(=O)Nc2cc(C(NCC3CC3)c3ccccc3)ccc2F)c1 (single isomer, unassigned; (-)) [270a, (−)-N-(5-((cyclopropylmethylamino)(phenyl)methyl)-2-fluorophenyl)-1-(3-((ethylamino)methyl)phenyl)-3-(trifluoromethyl)-1H-pyrazole-5-carboxamide]
Second: NCc1cccc(C(NCC2CC2)c2ccc(F)c(NC(=O)c3cc(C(F)(F)F)nn3-c3cccc(CN)c3)c2)c1 (centres unmarked) [155c, 1-(3-(aminomethyl)phenyl)-N-(5-((3-(aminomethyl)phenyl)(cyclopropylmethylamino)methyl)-2-fluorophenyl)-3-(trifluoromethyl)-1H-pyrazole-5-carboxamide]
The Ki of the first is higher: 50 to 100 nM for the first, 0.1 to 50 nM for the second. The second binds more tightly here.

`CC(C)NC(c1ccccc1)c1cccc(NC(=O)c2cc(C(F)(F)F)nn2-c2cccc(CN)c2)c1` (centres unmarked) [144d, 1-(3-(Aminomethyl)phenyl)-N-(3-((isopropylamino)(phenyl)methyl)phenyl)-3-(trifluoromethyl)-1H-pyrazole-5-carboxamide] and `CCc1cccc(C(NCC2CC2)c2cccc(NC(=O)c3cc(C(F)(F)F)nn3-c3cccc(CN)c3)c2)c1` (centres unmarked) [116e, 1-(3-(aminomethyl)phenyl)-N-(3-((cyclopropylmethylamino)(3-ethylphenyl)methyl)phenyl)-3-(trifluoromethyl)-1H-pyrazole-5-carboxamide] fall in the same range of Ki: 0.1 to 50 nM for the first, 0.1 to 50 nM for the second.

First: NCc1cccc(-n2nc(C(F)(F)F)cc2C(=O)Nc2cc(C(c3ccccc3)N(CC3CC3)CC3CC3)ccc2F)c1 (single isomer, unassigned; (-)) [206d, (−)-1-(3-(aminomethyl)phenyl)-N-(5-((bis(cyclopropylmethyl)amino)(phenyl)methyl)-2-fluorophenyl)-3-(trifluoromethyl)-1H pyrazole-5-carboxamide]
Second: CCOC(c1ccccc1)c1ccc(F)c(NC(=O)c2cc(C(F)(F)F)nn2-c2cccc(CN)c2)c1 (centres unmarked) [25b, 1-(3-(aminomethyl)phenyl)-N-(5-(ethoxy(phenyl)methyl)-2-fluorophenyl)-3-(trifluoromethyl)-1H-pyrazole-5-carboxamide]
The Ki of the first is lower: 0.1 to 50 nM for the first, 50 to 100 nM for the second. The first binds more tightly here.

`NCc1cccc(-n2nc(C(F)(F)F)cc2C(=O)Nc2cccc(C(OCC3CC3)c3ccc(O)cc3)c2)c1` (centres unmarked) [149b, 1-(3-(aminomethyl)phenyl)-N-(3-((cyclopropylmethoxy)(4-hydroxyphenyl)methyl)phenyl)-3-(trifluoromethyl)-1H-pyrazole-5-carboxamide] and `NCc1cccc(-n2nc(C(F)(F)F)cc2C(=O)Nc2cccc(C(NCC3CC3)c3cn[nH]c3)c2)c1` (centres unmarked) [84h, 1-(3-(aminomethyl)phenyl)-N-(3-(((cyclopropylmethyl)amino)(1H-pyrazol-4-yl)methyl)phenyl)-3-(trifluoromethyl)-1H-pyrazole-5-carboxamide] fall in the same range of Ki: 0.1 to 50 nM for the first, 0.1 to 50 nM for the second.

With `N#Cc1cccc(C(NCC2CC2)c2ccc(F)c(NC(=O)c3cc(C(F)(F)F)nn3-c3cccc(C(=N)N)c3)c2)c1` (single isomer, unassigned; (+)) [236h, (+)-1-(3-carbamimidoylphenyl)-N-(5-((3-cyanophenyl)(cyclopropylmethylamino)methyl)-2-fluorophenyl)-3-(trifluoromethyl)-1H-pyrazole-5-carboxamide] the Ki was 0.1 to 50 nM.

Same assay, conditions: Ki, 2 nM kallikrein, 80 μM S2302, 30° C., pH 7.8; Ki by Cheng-Prusoff equation; values given as ranges

With `NCc1cccc(-n2nc(C(F)(F)F)cc2C(=O)Nc2cccc(C(OCCC3CC3)c3ccccc3)c2)c1` (centres unmarked) [74a, 1-(3-(aminomethyl)phenyl)-N-(3-((2-cyclopropylethoxy)(phenyl)methyl)phenyl)-3-(trifluoromethyl)-1H-pyrazole-5-carboxamide] the Ki was 0.1 to 50 nM.

From patent US11203574B2 (BioCryst Pharmaceuticals, Inc., priority 2014, dated 2021)
